Experimental findings from ChEMBL document CHEMBL5038648, “Dolabellane Diterpenes and Elemane Alkaloids from the Soft Coral Clavularia inflata Collected in the South China Sea” (J Nat Prod, 2022) are described below.

Calls of active or inactive are those of the source. The rule behind the calls is not given here.

The species named for assay [1] is Danio rerio. The experiment in a line: Antiinflammatory activity in transgenic fluorescent zebrafish expressing EGFP assessed as reduction in CuSO4 induced macrophage migration at 20 uM preincubated for 2 hrs followed Cuso4 addition and measured after 1 hr by fluorescence microscopic analysis. Conditions: time 3.0 hrs. It is filed as functional, organism-based.

The species entered for assay [2] is Danio rerio. Put plainly: Antiinflammatory activity in transgenic fluorescent zebrafish expressing EGFP assessed as reduction in CuSO4 induced number of macrophages surrounding the neuromast at 20 uM preincubated for 2 hrs followed by Cuso4 addition and measured after 1 hr by fluorescence microscopic analysis. The assay is classed as functional, organism-based. The note with it: time 3.0 hrs.

With `C=C[C@]1(C)C[C@@H]2NC(=O)C(C)=C2C[C@H]1C(=C)C(=O)OC`, the result in the assay listed under Danio rerio [1] and in the assay filed under Danio rerio [2] was Active.

Take `C=C1CC/C=C(\C)C[C@H]2OC(=O)C(C)=C3CC[C@@](C)(CC1)[C@@H]32`: the result in the assay filed under Danio rerio [1] and in the assay listed under Danio rerio [2] was Active.

Consider `COc1ccc2c(c1)c(CC(=O)O)c(C)n2C(=O)c1ccc(Cl)cc1`, for which the outcome in the assay filed under Danio rerio [1] and in the assay filed under Danio rerio [2] was Active.

As for `CC1=C2CC[C@@]3(C)CC/C(C)=C\C(=O)C[C@@H](C)C[C@@H](OC1=O)[C@]23OO`, the outcome in the assay listed under Danio rerio [1] and in the assay listed under Danio rerio [2] was Active.

`CC1=C2CC[C@@]3(C)/C=C/[C@]4(C)C[C@](O)(C[C@@H](C)C[C@@H](OC1=O)[C@H]23)OO4`: the result in the assay listed under Danio rerio [1] and in the assay filed under Danio rerio [2] was Active.

`CC1=C2C(=O)C[C@@]3(C)CC/C(C)=C\C(=O)C[C@@H](C)C[C@@H](OC1=O)[C@H]23`: the result in the assay filed under Danio rerio [1] and in the assay listed under Danio rerio [2] was Active.

In the case of `C=C[C@@]1(C)C[C@H]2NC(=O)C(C)=C2C[C@@H]1C(=C)C(=O)OC`, the outcome in the assay listed under Danio rerio [1] and in the assay filed under Danio rerio [2] was Active.

Turning to `C=C1CC/C=C(\C)C[C@@H](O)[C@@H]2C(C(C)(C)O)=CC[C@@]2(C)CC1`, the outcome in the assay listed under Danio rerio [1] and in the assay listed under Danio rerio [2] was Active.

Regarding `CC1=C2CC[C@@]3(C)CC/C(C)=C/C(=O)C[C@@H](C)C[C@@H](OC1=O)[C@H]23`, the outcome in the assay listed under Danio rerio [1] and in the assay filed under Danio rerio [2] was Active.
